Like-named read-outs stand apart in the source and are kept apart here.
Experiments:
[1] = molecular target: human recombinant A1 adenosine receptor (Homo sapiens, UniProt P30542); assay: Adenosine A1 receptor binding, displacement of [^3H]CCPA in transfected CHO cells
Method: (§1) Membranes for radioligand binding experiments were prepared from fresh or frozen cells as described in Klotz et al., Naunyn-Schmiedeberg's Arch. Pharmacol., 357:1-9 (1998). The cell suspension was then homogenized in ice-cold hypotonic buffer (5 mM Tris/HCl, 2 mM EDTA, pH 7.4) and the resultant homogenate was spun for 10 minutes (4° C.) at 1,000 g. The membranes were then sedimented from the supernatant for 30 minutes at 100,000 g and resuspended in 50 mM Tris/HCl buffer pH 7.4 (for A3 adenosine receptors: 50 mM Tris/HCl, 10 mM MgCl2, 1 mM EDTA, pH 8.25), frozen in liquid nitrogen at a protein concentration of 1-3 mg/mL and stored at −80° C.
(§2) Nonspecific binding was determined in the presence of 100 μM R-PIA and 1 mM theophylline, respectively. For details see Klotz et al., Naunyn-Schmiedeberg's Arch. Pharmacol., 357:1-9, 1998. All binding data were calculated by non-linear curve fitting using the program SCTFIT (De Lean et al., Mol. Pharm. 1982, 21:5-16).

[2] = molecular target: T1, human recombinant A3 adenosine receptor (Homo sapiens, UniProt P0DMS8); assay: Adenosine A3 receptor binding, displacement of [^3H]NECA in transfected HEK cells; conditions: displacement of specific [^3H]NECA binding, geometric mean
T1 construct: expressed in transfected cells
T1 sequence (P0DMS8 1-318): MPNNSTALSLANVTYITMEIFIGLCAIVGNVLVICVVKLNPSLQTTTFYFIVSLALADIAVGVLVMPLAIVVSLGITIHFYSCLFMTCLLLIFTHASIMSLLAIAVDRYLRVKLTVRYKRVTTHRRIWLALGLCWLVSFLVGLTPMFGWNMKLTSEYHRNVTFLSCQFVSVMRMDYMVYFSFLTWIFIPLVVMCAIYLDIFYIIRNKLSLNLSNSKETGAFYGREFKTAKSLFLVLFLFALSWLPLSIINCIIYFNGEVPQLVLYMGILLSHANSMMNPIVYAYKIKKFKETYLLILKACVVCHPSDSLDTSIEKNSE
Method: as §1, §2

[3] = molecular target: T2, human recombinant A2A adenosine receptor (Homo sapiens, UniProt P29274); assay: Adenosine A2A receptor binding, displacement of [^3H]NECA in transfected CHO cells
T2 construct: expressed in transfected cells
T2 sequence (P29274 whole entry): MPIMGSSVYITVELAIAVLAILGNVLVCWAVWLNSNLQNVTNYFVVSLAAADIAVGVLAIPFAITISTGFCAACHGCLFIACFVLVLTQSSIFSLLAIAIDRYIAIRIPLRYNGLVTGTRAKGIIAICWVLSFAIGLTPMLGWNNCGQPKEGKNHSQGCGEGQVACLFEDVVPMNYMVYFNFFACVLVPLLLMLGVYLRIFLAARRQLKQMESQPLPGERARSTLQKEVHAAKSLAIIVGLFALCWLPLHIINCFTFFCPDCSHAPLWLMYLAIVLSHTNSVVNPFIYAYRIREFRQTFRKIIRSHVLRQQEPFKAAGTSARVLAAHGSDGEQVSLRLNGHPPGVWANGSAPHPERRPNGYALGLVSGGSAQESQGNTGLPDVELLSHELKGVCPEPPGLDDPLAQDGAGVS
Method: as §1, §2

male Sprague-Dawley rats = assay: Effect on core body temperature in rats; assay type: in vivo; parameters: Rectal Temperature: unit not given here; conditions: for Behavior / Rectal Temperature / Respiratory Rate / Respiration Rate: rat at 13° C., 15 mg/kg JV then 20 mg/mL at 1 mL/h
Method: Their rectal temperature, respiratory rate, and behavior were recorded following 5 min, 10 min, 20 min, 30 min, 1 h, 1.5 h, 2 h, 2.5 h, 3 h, 3.5 h, and 4 h.

[4] = tested on: New Zealand white rabbits; assay: Effect on intraocular pressure (IOP) in rabbits; assay type: in vivo, rabbit
Method: The effect of an illustrative Purine Derivative on intraocular pressure (IOP) was examined in New Zealand white rabbits. New Zealand white rabbits undergo a circadian change in intraocular pressure, such that lowest pressure values occur in the early morning and peak pressure values occur in the afternoon. […] Consistency of measurements is indicated by the fact the intraocular pressure at t=−23 hours and t=25 hours is essentially the same (see FIGS. 1-5).
One rabbit was administered with each each dose level. […] Thus, Compound I′-1 was administered when the level of intraocular pressure was low relative to other timepoints during the day and night.

Sequence of human recombinant A1 adenosine receptor (P30542 whole entry): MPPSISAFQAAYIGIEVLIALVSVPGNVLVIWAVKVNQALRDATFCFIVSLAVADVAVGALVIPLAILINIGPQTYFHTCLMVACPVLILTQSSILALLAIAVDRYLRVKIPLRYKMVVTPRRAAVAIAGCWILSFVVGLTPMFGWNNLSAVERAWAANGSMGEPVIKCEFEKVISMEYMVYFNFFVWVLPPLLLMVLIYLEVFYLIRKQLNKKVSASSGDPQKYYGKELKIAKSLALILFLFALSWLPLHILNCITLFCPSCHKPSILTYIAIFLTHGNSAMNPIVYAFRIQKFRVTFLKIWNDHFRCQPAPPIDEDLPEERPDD

Q: Which Ki [1] does the source give for OC[C@H]1O[C@@H](n2cnc3c(NC4(CO)CCCC4)ncnc32)[C@H](O)[C@@H]1O [I′-1] here?
A: The Ki was 0.00677 µM.

Q: What about the Ki [2] of the same compound?
A: Its Ki is 7.7 µM.

Q: What about the Ki [3] of the same compound?
A: Its Ki is 28.1 µM.

Q: What about the Behavior (male Sprague-Dawley rats; Animal #1, 0 min) of the same compound?
A: Its Behavior is “normal”.

Q: And the “Rectal Temperature” value (male Sprague-Dawley rats; Animal #1, 0 min)?
A: The value was 38.

Q: What about the “Respiratory Rate” value (male Sprague-Dawley rats; Animal #1, 0 min) of the same compound?
A: Its value is 210 min⁻¹.

Q: And the Behavior (male Sprague-Dawley rats; Animal #1, 5 min)?
A: The Behavior was “sleep/”.

Q: And the “Rectal Temperature” value (male Sprague-Dawley rats; Animal #1, 5 min)?
A: The value was 38.

Q: And the Behavior (male Sprague-Dawley rats; Animal #1, 10 min)?
A: The Behavior was “sleep/”.

Q: And the “Rectal Temperature” value (male Sprague-Dawley rats; Animal #1, 10 min)?
A: Its value is 37.

Q: What about the “Respiratory Rate” value (male Sprague-Dawley rats; Animal #1, 10 min) of the same compound?
A: The value was 69 min⁻¹.

Q: What about the Behavior (male Sprague-Dawley rats; Animal #1, 20 min) of the same compound?
A: Its Behavior is “sleep”.

Q: And the “Rectal Temperature” value (male Sprague-Dawley rats; Animal #1, 20 min)?
A: Its value is 36.

Q: And the “Respiratory Rate” value (male Sprague-Dawley rats; Animal #1, 20 min)?
A: Its value is 66 min⁻¹.

Q: What about the Behavior (male Sprague-Dawley rats; Animal #1, 30 min) of the same compound?
A: The Behavior was “sleep”.

Q: What about the “Rectal Temperature” value (male Sprague-Dawley rats; Animal #1, 30 min) of the same compound?
A: The value was 36.

Q: And the “Respiratory Rate” value (male Sprague-Dawley rats; Animal #1, 30 min)?
A: Its value is 75 min⁻¹.

Q: What about the Behavior (male Sprague-Dawley rats; Animal #1, 1 h) of the same compound?
A: Its Behavior is “sleep”.

Q: What about the “Rectal Temperature” value (male Sprague-Dawley rats; Animal #1, 1 h) of the same compound?
A: The value was 32.

Q: What about the “Respiration Rate” value (male Sprague-Dawley rats; Animal #1, 1 h) of the same compound?
A: The value was 42 min⁻¹.

Q: And the Behavior (male Sprague-Dawley rats; Animal #1, 1.5 h)?
A: Its Behavior is “sleep”.

Q: What about the “Rectal Temperature” value (male Sprague-Dawley rats; Animal #1, 1.5 h) of the same compound?
A: Its value is 29.

Q: What about the “Respiration Rate” value (male Sprague-Dawley rats; Animal #1, 1.5 h) of the same compound?
A: Its value is 45 min⁻¹.

Q: And the Behavior (male Sprague-Dawley rats; Animal #1, 2 h)?
A: Its Behavior is “sleep”.

Q: What about the “Rectal Temperature” value (male Sprague-Dawley rats; Animal #1, 2 h) of the same compound?
A: Its value is 27.

Q: What about the “Respiration Rate” value (male Sprague-Dawley rats; Animal #1, 2 h) of the same compound?
A: Its value is 54 min⁻¹.

Q: What about the Behavior (male Sprague-Dawley rats; Animal #1, 2.5 h) of the same compound?
A: Its Behavior is “sleep”.

Q: What about the “Rectal Temperature” value (male Sprague-Dawley rats; Animal #1, 2.5 h) of the same compound?
A: The value was 25.

Q: What about the “Respiration Rate” value (male Sprague-Dawley rats; Animal #1, 2.5 h) of the same compound?
A: Its value is 51 min⁻¹.

Q: What about the Behavior (male Sprague-Dawley rats; Animal #1, 3 h) of the same compound?
A: The Behavior was “sleep”.

Q: What about the “Rectal Temperature” value (male Sprague-Dawley rats; Animal #1, 3 h) of the same compound?
A: Its value is 24.

Q: And the “Respiration Rate” value (male Sprague-Dawley rats; Animal #1, 3 h)?
A: The value was 42 min⁻¹.

Q: What about the Behavior (male Sprague-Dawley rats; Animal #1, 3.5 h) of the same compound?
A: Its Behavior is “sleep”.

Q: And the “Rectal Temperature” value (male Sprague-Dawley rats; Animal #1, 3.5 h)?
A: The value was 23.

Q: And the “Respiration Rate” value (male Sprague-Dawley rats; Animal #1, 3.5 h)?
A: Its value is 42 min⁻¹.

Q: And the Behavior (male Sprague-Dawley rats; Animal #1, 4 h)?
A: The Behavior was “sleep”.

Q: And the “Rectal Temperature” value (male Sprague-Dawley rats; Animal #1, 4 h)?
A: Its value is 21.

Q: What about the “Respiration Rate” value (male Sprague-Dawley rats; Animal #1, 4 h) of the same compound?
A: Its value is 42 min⁻¹.

Q: What about the Behavior (male Sprague-Dawley rats; Animal #2, 0 min) of the same compound?
A: The Behavior was “normal”.

Q: And the “Rectal Temperature” value (male Sprague-Dawley rats; Animal #2, 0 min)?
A: The value was 39.

Q: And the “Respiratory Rate” value (male Sprague-Dawley rats; Animal #2, 0 min)?
A: The value was 220 min⁻¹.

Q: What about the Behavior (male Sprague-Dawley rats; Animal #2, 5 min) of the same compound?
A: Its Behavior is “normal”.

Q: What about the “Rectal Temperature” value (male Sprague-Dawley rats; Animal #2, 5 min) of the same compound?
A: Its value is 39.

Q: What about the “Respiratory Rate” value (male Sprague-Dawley rats; Animal #2, 5 min) of the same compound?
A: The value was 99 min⁻¹.

Q: What about the Behavior (male Sprague-Dawley rats; Animal #2, 10 min) of the same compound?
A: The Behavior was “sleep/”.

Q: And the “Rectal Temperature” value (male Sprague-Dawley rats; Animal #2, 10 min)?
A: Its value is 38.

Q: And the “Respiratory Rate” value (male Sprague-Dawley rats; Animal #2, 10 min)?
A: Its value is 84 min⁻¹.

Q: What about the Behavior (male Sprague-Dawley rats; Animal #2, 20 min) of the same compound?
A: Its Behavior is “sleep/”.

Q: What about the “Rectal Temperature” value (male Sprague-Dawley rats; Animal #2, 20 min) of the same compound?
A: Its value is 37.

Q: And the “Respiratory Rate” value (male Sprague-Dawley rats; Animal #2, 20 min)?
A: The value was 57 min⁻¹.

Q: What about the Behavior (male Sprague-Dawley rats; Animal #2, 30 min) of the same compound?
A: Its Behavior is “sleep/”.

Q: And the “Rectal Temperature” value (male Sprague-Dawley rats; Animal #2, 30 min)?
A: The value was 37.

Q: What about the “Respiratory Rate” value (male Sprague-Dawley rats; Animal #2, 30 min) of the same compound?
A: The value was 51 min⁻¹.

Q: And the Behavior (male Sprague-Dawley rats; Animal #2, 1 h)?
A: Its Behavior is “sleep”.

Q: What about the “Rectal Temperature” value (male Sprague-Dawley rats; Animal #2, 1 h) of the same compound?
A: Its value is 33.

Q: What about the “Respiration Rate” value (male Sprague-Dawley rats; Animal #2, 1 h) of the same compound?
A: Its value is 36 min⁻¹.

Q: And the Behavior (male Sprague-Dawley rats; Animal #2, 1.5 h)?
A: The Behavior was “sleep”.

Q: What about the “Rectal Temperature” value (male Sprague-Dawley rats; Animal #2, 1.5 h) of the same compound?
A: Its value is 30.

Q: What about the “Respiration Rate” value (male Sprague-Dawley rats; Animal #2, 1.5 h) of the same compound?
A: Its value is 36 min⁻¹.

Q: What about the Behavior (male Sprague-Dawley rats; Animal #2, 2 h) of the same compound?
A: Its Behavior is “sleep”.

Q: And the “Rectal Temperature” value (male Sprague-Dawley rats; Animal #2, 2 h)?
A: Its value is 28.

Q: What about the “Respiration Rate” value (male Sprague-Dawley rats; Animal #2, 2 h) of the same compound?
A: Its value is 36 min⁻¹.

Q: What about the Behavior (male Sprague-Dawley rats; Animal #2, 2.5 h) of the same compound?
A: Its Behavior is “sleep”.

Q: And the “Rectal Temperature” value (male Sprague-Dawley rats; Animal #2, 2.5 h)?
A: The value was 27.

Q: And the “Respiration Rate” value (male Sprague-Dawley rats; Animal #2, 2.5 h)?
A: The value was 30 min⁻¹.

Q: What about the Behavior (male Sprague-Dawley rats; Animal #2, 3 h) of the same compound?
A: Its Behavior is “sleep”.

Q: And the “Rectal Temperature” value (male Sprague-Dawley rats; Animal #2, 3 h)?
A: The value was 26.

Q: What about the “Respiration Rate” value (male Sprague-Dawley rats; Animal #2, 3 h) of the same compound?
A: Its value is 27 min⁻¹.

Q: What about the Behavior (male Sprague-Dawley rats; Animal #2, 3.5 h) of the same compound?
A: Its Behavior is “sleep”.

Q: And the “Rectal Temperature” value (male Sprague-Dawley rats; Animal #2, 3.5 h)?
A: Its value is 25.

Q: And the “Respiration Rate” value (male Sprague-Dawley rats; Animal #2, 3.5 h)?
A: The value was 24 min⁻¹.

Q: What about the Behavior (male Sprague-Dawley rats; Animal #2, 4 h) of the same compound?
A: Its Behavior is “sleep”.

Q: What about the “Rectal Temperature” value (male Sprague-Dawley rats; Animal #2, 4 h) of the same compound?
A: Its value is 25.

Q: What about the “Respiration Rate” value (male Sprague-Dawley rats; Animal #2, 4 h) of the same compound?
A: The value was 27 min⁻¹.

Q: What about the “Effect on core body temperature (conclusion)” value (male Sprague-Dawley rats; rats, Tables 3A and 3B) of the same compound?
A: Its value is “reduces an animal's core body temperature”.

Q: And the “Survival of the animals” value (male Sprague-Dawley rats; two rats, 15 mg/kg JV then 20 mg/mL at 1 mL/h for 4 hours)?
A: Its value is “Both animals survived the experiment”.

Q: What about the “Effect on intraocular pressure (conclusion)” value ([4]; FIGS. 1-5) of the same compound?
A: The value was “reduces an animal's intraocular pressure”.

Q: And the “Time of recovery of intraocular pressure values to normal levels” value ([4]; administered concentration 0.3 mg/mL (FIG. 1))?
A: The value was about 6 h.

Q: What about the “Time of recovery of intraocular pressure values to normal levels” value ([4]; administered concentration 30 mg/mL (FIG. 5)) of the same compound?
A: The value was over 7 h.

Q: And the “Intraocular pressure course after administration” value ([4]; one drop to one eye at t=0 hours, FIGS. 1-5)?
A: Its value is “the intraocular pressure did not increase to the normal day values”.

Q: What about the Eye irritation ([4]; topical ocular, 0.3-30.0 mg/mL) of the same compound?
A: The Eye irritation was “No eye irritation was observed in any animal”.

Q: For OC[C@H]1O[C@@H](n2cnc3c(NC4(CO)CCCC4)nc(Cl)nc32)[C@H](O)[C@@H]1O [I′-19], which Ki [1] is on record?
A: Its Ki is 0.00647 µM.

Q: What about the Ki [2] of the same compound?
A: Its Ki is 5.96 µM.

Q: And the Ki [3]?
A: The Ki was 24 µM.

Q: Which Ki ([3]; displacement of specific [^3H]NECA binding, CHO cells, geometric mean, read-out: Ki(A2A)) does the source give for OC[C@H]1O[C@@H](n2cnc3c(NC4CCCC4)nc(Cl)nc32)[C@H](O)[C@@H]1O [[^3H]CCPA, 2-chloro-N^6-[^3H]cyclopentyladenosine, reference compound] here?
A: Its Ki is 2.27 µM.

From patent US7732424B2, “Purine derivatives and methods of use thereof” (Inotek Pharmaceuticals Corporation, priority 2005, dated 2010)
